The values that follow come from US8142714B2, “Cleaning and disinfection of surgical and medical instruments and appliances” (Chemische Fabrik Dr. Weigert GmbH & Co. KG, priority 2002, dated 2012).

One may read the surface tension as the force per length acting along the surface.

Data set [1] in a line: Surface tension as specified in DIN 53993. In kind it is physicochemical. The note with it: NaOH in deionized water, cleaner 1% by volume in Hamburg city water. As for the experimental part:
The cleaning solution diluted in ready-to-use form preferably has a surface tension of less than 50 mN/m, preferably less than 40 mN/m, further preferably less than 35 mN/m, further preferably less than 30 mN/m. The surface tension is determined by the plate-ring method as specified in DIN 53993.
The surface tension was determined as specified in DIN 53993 for the following liquids: […]

Data set [2] is described as follows: Cleaning of roughened microscope slides dirtied with blood-egg yolk mixture, immersion bath. The note with it: 50 mg blood-egg yolk mixture dried at 55° C. for 2 h; stirred immersion bath 10 min at room temperature; cleaner 1% strength by volume. As to the method: Roughened microscope slides are dirtied with 50 mg of a blood-egg yolk mixture, dried at 55° C. for 2 h and then immersed in a stirred bath for 10 min at room temperature. The medium used for the immersion bath is deionized water, 0.1 N NaOH or a 1% strength by volume cleaning solution of the cleaning composition concentrate according to example 1. The residual amount of fouling then determined is 20% by weight for water, 35% by weight for 0.1 N NaOH and less than 5% by weight for the cleaner, as immersion bath medium used.

In turn, `[Na+].[OH-]` [0.1 N NaOH, NaOH] gave a surface tension in data set [1] of 72 mN/m. For the same molecule, the “residual amount of fouling” value in data set [2] is 35 % by weight.
